According to patent US11911361B2, “Stable cannabinoid formulations” (priority 2014, dated 2024):

Experiments:
[1] = system: maximal electroshock-induced seizures; assay: Maximal electroshock test (MES), rats; details: Anticonvulsant Screening
[2] = system: oxaliplatin-induced peripheral neuropathy; assay: Oxaliplatin induced neuropathic pain study; assay type: in vivo; details: CBD 15 minutes prior to single oxaliplatin 6 mg/kg
Method: (§1) A study was designed to test the efficacy of CBD in preventing oxaliplatin- or vincristine-induced peripheral neuropathy. Two doses of CBD and vehicle were tested against each of these first line chemotherapeutic agents. Oxaliplatin was administered once at a dose of 6 mg/kg. CBD was administered 15 minutes prior to the single oxaliplatin injection. Vincristine was administered once daily for 7 days at a dose of 0.1 mg/kg. CBD was administered 15 minutes prior to each vincristine injection. For each treatment group the final sample size was 8 animals.

[3] = Long-term safety study in pediatric patients with refractory epilepsy; details: human, in vivo, oral, 48 week
Text: This was a long-term, open-label, 48-week study for pediatric subjects aged 1 year to 17 years with refractory epilepsy.
The study included 5 subjects aged 1 to <2 years (infants); 9 subjects aged 2 to <12 years (children), with ≥3 subjects under the age of 6 years; 6 subjects aged 12 to ≤17 years (adolescents), with ≥3 subjects under the age of 16 years.

[4] = system: maximal electroshock-induced seizures; assay: Maximal electroshock test (MES), mice; details: for MES N/F (animals protected/tested): mice
clinical = details: human, in vivo, po, 20 mg/kg, single 20 mg/kg oral dose of cannabidiol solution, mean; for CL/F / Vd/F: cannabidiol; for half-life: t1/2, cannabidiol
Method: An open label, randomized, single-dose, two-period, two-way crossover food-effect study was conducted on healthy subjects. […] Twenty-four (24) subjects were enrolled in the study and each were subjected to the fasted and fed treatment arms in separate periods followed by a 7-day wash-out period. For pharmacokinetic analysis, nominal time and default lambda-z selections were used. All below quantifiable limit values were set to zero and all subjects were included in the analysis.
Data from 13 subjects from the fasted treatment and 24 subject from the fed treatment were included in the pharmacokinetic and statistical analyses.

[5] = system: vincristine-induced peripheral neuropathy; assay: Vincristine induced neuropathic pain study; assay type: in vivo; details: CBD 15 minutes prior to each vincristine 0.1 mg/kg injection
Method: as §1

## C=C(C)[C@@H]1CCC(C)=C[C@H]1c1c(O)cc(CCCCC)cc1O [cannabidiol, (−)-trans-2-p-mentha-1,8-dien-3-yl-5-pentylresorcinol]
[1]; dose 30, 1.0 h, ethanol:polyethoxylated castor oil:PBS
  MES N/F (animals protected/tested): 0/4
[1]; dose 30, 1.0 h, methylcellulose
  MES N/F (animals protected/tested): 0/4
[1]; dose 30, 2.0 h, ethanol:polyethoxylated castor oil:PBS
  MES N/F (animals protected/tested): 0/4
[1]; dose 30, 2.0 h, methylcellulose
  MES N/F (animals protected/tested): 0/4
[1]; dose 30, 4.0 h, ethanol:polyethoxylated castor oil:PBS
  MES N/F (animals protected/tested): 0/4
[1]; dose 30, 4.0 h, methylcellulose
  MES N/F (animals protected/tested): 0/4
[1]; dose 100, 1.0 h, ethanol:polyethoxylated castor oil:PBS
  MES N/F (animals protected/tested): 1/4
[1]; dose 100, 1.0 h, methylcellulose
  MES N/F (animals protected/tested): 0/4
[1]; dose 100, 2.0 h, ethanol:polyethoxylated castor oil:PBS
  MES N/F (animals protected/tested): 0/4
[1]; dose 100, 2.0 h, methylcellulose
  MES N/F (animals protected/tested): 0/4
[1]; dose 100, 4.0 h, ethanol:polyethoxylated castor oil:PBS
  MES N/F (animals protected/tested): 0/4
[1]; dose 100, 4.0 h, methylcellulose
  MES N/F (animals protected/tested): 0/4
[2]
  effect on oxaliplatin-induced mechanical sensitivity (in words): attenuated
[3]
  subjects with somnolence related to the CBD: 7.7%
  subjects with weight increase related to the CBD: 7.7%
[4]; Anticonvulsant Screening, intraperitoneal, 10 mg/kg, 0.5 h, ethanol:polyethoxylated castor oil:PBS
  MES N/F (animals protected/tested): 0/4
[4]; Anticonvulsant Screening, intraperitoneal, 10 mg/kg, 0.5 h, methylcellulose
  MES N/F (animals protected/tested): 0/4
[4]; Anticonvulsant Screening, intraperitoneal, 10 mg/kg, 1.0 h, ethanol:polyethoxylated castor oil:PBS
  MES N/F (animals protected/tested): 0/4
[4]; Anticonvulsant Screening, intraperitoneal, 10 mg/kg, 1.0 h, methylcellulose
  MES N/F (animals protected/tested): 0/4
[4]; Anticonvulsant Screening, intraperitoneal, 10 mg/kg, 2.0 h, ethanol:polyethoxylated castor oil:PBS
  MES N/F (animals protected/tested): 0/4
[4]; Anticonvulsant Screening, intraperitoneal, 10 mg/kg, 2.0 h, methylcellulose
  MES N/F (animals protected/tested): 0/4
[4]; Anticonvulsant Screening, intraperitoneal, 30 mg/kg, 0.5 h, ethanol:polyethoxylated castor oil:PBS
  MES N/F (animals protected/tested): 0/4
[4]; Anticonvulsant Screening, intraperitoneal, 30 mg/kg, 0.5 h, methylcellulose
  MES N/F (animals protected/tested): 0/4
[4]; Anticonvulsant Screening, intraperitoneal, 30 mg/kg, 1.0 h, ethanol:polyethoxylated castor oil:PBS
  MES N/F (animals protected/tested): 1/4
[4]; Anticonvulsant Screening, intraperitoneal, 30 mg/kg, 1.0 h, methylcellulose
  MES N/F (animals protected/tested): 0/4
[4]; Anticonvulsant Screening, intraperitoneal, 30 mg/kg, 2.0 h, ethanol:polyethoxylated castor oil:PBS
  MES N/F (animals protected/tested): 0/4
[4]; Anticonvulsant Screening, intraperitoneal, 30 mg/kg, 2.0 h, methylcellulose
  MES N/F (animals protected/tested): 0/4
[4]; Anticonvulsant Screening, intraperitoneal, 100 mg/kg, 0.5 h, ethanol:polyethoxylated castor oil:PBS
  MES N/F (animals protected/tested): 0/4
[4]; Anticonvulsant Screening, intraperitoneal, 100 mg/kg, 0.5 h, methylcellulose
  MES N/F (animals protected/tested): 0/4
[4]; Anticonvulsant Screening, intraperitoneal, 100 mg/kg, 1.0 h, ethanol:polyethoxylated castor oil:PBS
  MES N/F (animals protected/tested): 2/4
[4]; Anticonvulsant Screening, intraperitoneal, 100 mg/kg, 1.0 h, methylcellulose
  MES N/F (animals protected/tested): 1/4
[4]; Anticonvulsant Screening, intraperitoneal, 100 mg/kg, 2.0 h, ethanol:polyethoxylated castor oil:PBS
  MES N/F (animals protected/tested): 1/4
[4]; Anticonvulsant Screening, intraperitoneal, 100 mg/kg, 2.0 h, methylcellulose
  MES N/F (animals protected/tested): 2/4
[4]; ED50 Biological Response (Table 57), 200 mg/kg, 2 h, methylcellulose
  MES N/F (animals protected/tested): 5/8
[4]; ED50 Biological Response (Table 57), 250 mg/kg, 2 h, methylcellulose
  MES N/F (animals protected/tested): 4/8
[4]; ED50 Biological Response (Table 57), 350 mg/kg, 2 h, methylcellulose
  MES N/F (animals protected/tested): 3/8
[4]; ED50 Biological Response (Table 57), 400 mg/kg, 2 h, methylcellulose
  MES N/F (animals protected/tested): 3/8
[4]; ED50 Biological Response (Table 57), 450 mg/kg, 2 h, methylcellulose
  MES N/F (animals protected/tested): 6/8
[4]; ED50 Biological Response (Table 57), 500 mg/kg, 2 h, methylcellulose
  MES N/F (animals protected/tested): 8/8
[4]; ED50 Biological Response (Table 59), 75 mg/kg, 2 h, ethanol:polyethoxylated castor oil:PBS
  MES N/F (animals protected/tested): 1/8
[4]; ED50 Biological Response (Table 59), 95 mg/kg, 2 h, ethanol:polyethoxylated castor oil:PBS
  MES N/F (animals protected/tested): 5/8
[4]; ED50 Biological Response (Table 59), 120 mg/kg, 2 h, ethanol:polyethoxylated castor oil:PBS
  MES N/F (animals protected/tested): 7/8
[4]; ED50 Biological Response (Table 59), 150 mg/kg, 2 h, ethanol:polyethoxylated castor oil:PBS
  MES N/F (animals protected/tested): 8/8
[4]; Mus musculus
  ED50: 92.2 mg/kg
[4]; Tables 57/58, 300 mg/kg, 2 h, methylcellulose
  MES N/F (animals protected/tested): 4/8
[4]; Time to Peak Effect (Table 58), 300 mg/kg, 0.25 h, methylcellulose
  MES N/F (animals protected/tested): 0/4
[4]; Time to Peak Effect (Table 58), 300 mg/kg, 0.5 h, methylcellulose
  MES N/F (animals protected/tested): 1/4
[4]; Time to Peak Effect (Table 58), 300 mg/kg, 1 h, methylcellulose
  MES N/F (animals protected/tested): 1/4
[4]; Time to Peak Effect (Table 58), 300 mg/kg, 4 h, methylcellulose
  MES N/F (animals protected/tested): 2/4
[4]; methylcellulose solvent
  ED50: could not be calculated
[4]; methylcellulose solvent, 0.5 hr
  animals protected / tested: ¼
[4]; methylcellulose solvent, 1 hr
  animals protected / tested: ¼
[4]; methylcellulose solvent, 2 hr
  animals protected / tested: 4/8
[4]; methylcellulose solvent, 4 hr
  animals protected / tested: 2/4
clinical; fasted
  CL/F: 1140 mL/min/kg
  Vd/F: 2680 L/kg
  half-life: 27.9 h
clinical; fed
  CL/F: 36.2 mL/min/kg
  Vd/F: 133 L/kg
  half-life: 42.3 h
[5]
  effect on vincristine-induced mechanical sensitivity (in words): no main effect of treatment
